These results are taken from patent US8969325B2, “TRPV1 antagonists” (AbbVie Inc., priority 2011, dated 2015).

The target of test [1] is T1, human TRPV1 (Homo sapiens (Human), UniProt Q8NER1). The experiment in a line: Capsaicin Activation Assay (intracellular Ca2+, FLIPR). It is filed as cell-based. The note with it: recombinant HEK293 cells expressing hTRPV1, 50 nM capsaicin. In short, it runs like this: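 Stably transfected HEK293 cells expressing human TRPV1 cDNA, plated the day before in poly-D-lysine plates. Compounds serially diluted from 10 mM DMSO stocks; intracellular Ca2+ fluorescence read on FLIPR at 1 to 5 second intervals.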

Test [2] has as its target T1, human TRPV1. The experiment in a line: Acid Activation Assay (pH 5.0, intracellular Ca2+, FLIPR). The test is classed as cell-based. The conditions noted are these: percentage of the maximal pH 5.0-induced response remaining; recombinant HEK293 hTRPV1 cells; maximum concentration tested 37.5 μM. In short, it runs like this:
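HEK293 cells stably expressing recombinant hTRPV1, loaded with Calcium-4 dye 90-120 min at 25° C. Compounds added over a 12-point half-log range (top 37.5 μM), then pH 5.0 DPBS/MES challenge after 3 min; FLIPR peak fluorescence over baseline given as % of maximal pH 5.0 response.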

T1 sequence (Q8NER1 whole entry): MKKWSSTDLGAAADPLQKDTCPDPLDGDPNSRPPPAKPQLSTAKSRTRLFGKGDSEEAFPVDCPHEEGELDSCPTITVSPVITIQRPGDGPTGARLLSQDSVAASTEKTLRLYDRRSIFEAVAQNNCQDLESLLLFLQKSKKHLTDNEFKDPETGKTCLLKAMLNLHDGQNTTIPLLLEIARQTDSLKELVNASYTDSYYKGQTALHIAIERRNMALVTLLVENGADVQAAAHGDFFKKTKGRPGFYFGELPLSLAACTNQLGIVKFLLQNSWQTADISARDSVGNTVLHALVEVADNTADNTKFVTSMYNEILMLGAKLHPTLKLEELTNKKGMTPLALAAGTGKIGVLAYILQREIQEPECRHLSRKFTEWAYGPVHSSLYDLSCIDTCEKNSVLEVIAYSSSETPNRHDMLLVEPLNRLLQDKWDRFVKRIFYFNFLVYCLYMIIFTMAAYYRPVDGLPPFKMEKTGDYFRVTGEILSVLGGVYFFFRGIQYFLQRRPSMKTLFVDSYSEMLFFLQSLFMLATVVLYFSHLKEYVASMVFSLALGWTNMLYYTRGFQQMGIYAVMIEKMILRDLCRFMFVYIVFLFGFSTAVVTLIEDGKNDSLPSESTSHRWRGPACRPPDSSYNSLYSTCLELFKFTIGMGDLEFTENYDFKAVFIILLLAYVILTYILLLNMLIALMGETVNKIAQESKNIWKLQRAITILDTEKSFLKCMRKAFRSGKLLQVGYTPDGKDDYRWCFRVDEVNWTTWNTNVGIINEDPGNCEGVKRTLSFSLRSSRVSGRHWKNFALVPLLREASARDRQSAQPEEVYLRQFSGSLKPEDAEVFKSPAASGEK

By IC50 is commonly meant the point on the concentration scale where inhibition reaches its midpoint. Regarding `CCCC1(CCC)C[C@@H](NC(=O)Nc2ccc3c(c2)NC(=O)CO3)c2cccc(F)c2O1` [Example 110, 1-[(4R)-8-fluoro-2,2-dipropyl-3,4-dihydro-2H-chromen-4-yl]-3-(3-oxo-3,4-dihydro-2H-1,4-benzoxazin-6-yl)urea], the IC50 at human TRPV1 [1] came to 150 nM. The “human TRPV1 H^+ (max % remain)” value on human TRPV1 [2] was 111%.

In the case of `CCC1(CC)C[C@@H](NC(=O)Nc2ccc3c(c2)NC(=O)CO3)c2ccc(OC(F)(F)F)cc2O1` [Example 111, 1-[(4R)-2,2-diethyl-7-(trifluoromethoxy)-3,4-dihydro-2H-chromen-4-yl]-3-(3-oxo-3,4-dihydro-2H-1,4-benzoxazin-6-yl)urea], the 50% inhibitory concentration (IC50) on human TRPV1 [1] was found to be 190 nM. The “human TRPV1 H^+ (max % remain)” value at human TRPV1 [2] amounted to 71%.

As to `CC1(C)C[C@@H](NC(=O)Nc2ccc3c(c2)NC(=O)CO3)c2ccccc2O1` [Example 112, 1-[(4R)-2,2-dimethyl-3,4-dihydro-2H-chromen-4-yl]-3-(3-oxo-3,4-dihydro-2H-1,4-benzoxazin-6-yl)urea], the IC50 at human TRPV1 [1] was found to be 440 nM. Further, the “human TRPV1 H^+ (max % remain)” value on human TRPV1 [2] is recorded as 101%.

For `CC1(C)C[C@@H](NC(=O)Nc2ccc3c(c2)NC(=O)CO3)c2cc(F)ccc2O1` [Example 113, 1-[(4R)-6-fluoro-2,2-dimethyl-3,4-dihydro-2H-chromen-4-yl]-3-(3-oxo-3,4-dihydro-2H-1,4-benzoxazin-6-yl)urea], the IC50 on human TRPV1 [1] turned out to be 770 nM. Besides, on human TRPV1 [2], the “human TRPV1 H^+ (max % remain)” value was 102%.

For `CC1(C)C[C@@H](NC(=O)Nc2ccc3c(c2)NC(=O)CO3)c2ccc(Cl)cc2O1` [Example 114, 1-[(4R)-7-chloro-2,2-dimethyl-3,4-dihydro-2H-chromen-4-yl]-3-(3-oxo-3,4-dihydro-2H-1,4-benzoxazin-6-yl)urea], the IC50 at human TRPV1 [1] turned out to be 56 nM. In addition, on human TRPV1 [2], the “human TRPV1 H^+ (max % remain)” value came to 99%.

Regarding `O=C1COc2ccc(NC(=O)N[C@@H]3CCOc4cc(OC(F)(F)F)ccc43)cc2N1` [Example 115, 1-(3-oxo-3,4-dihydro-2H-1,4-benzoxazin-6-yl)-3-[(4R)-7-(trifluoromethoxy)-3,4-dihydro-2H-chromen-4-yl]urea], the IC50 at human TRPV1 [1] was over 38000 nM. For the same molecule, on human TRPV1 [2], the “human TRPV1 H^+ (max % remain)” value was 91%.

`O=C1COc2ccc(NC(=O)N[C@@H]3CC(CF)(CF)Oc4c(F)cccc43)cc2N1` [Example 116, 1-[(4R)-8-fluoro-2,2-bis(fluoromethyl)-3,4-dihydro-2H-chromen-4-yl]-3-(3-oxo-3,4-dihydro-2H-1,4-benzoxazin-6-yl)urea]: on human TRPV1 [1], the IC50 stood at 2000 nM. Besides, the “human TRPV1 H^+ (max % remain)” value at human TRPV1 [2] came to 99%.

As for `CC1(C)C[C@@H](NC(=O)Nc2ccc3c(c2)NC(=O)CO3)c2ccc(F)c(F)c2O1` [Example 117, 1-[(4R)-7,8-difluoro-2,2-dimethyl-3,4-dihydro-2H-chromen-4-yl]-3-(3-oxo-3,4-dihydro-2H-1,4-benzoxazin-6-yl)urea], on human TRPV1 [1], the concentration for half-maximal inhibition (IC50) stood at 120 nM. Besides, the “human TRPV1 H^+ (max % remain)” value at human TRPV1 [2] was 99%.

With `O=C1COc2ccc(NC(=O)N[C@@H]3CCOc4ccc(F)cc43)cc2N1` [Example 118, 1-[(4R)-6-fluoro-3,4-dihydro-2H-chromen-4-yl]-3-(3-oxo-3,4-dihydro-2H-1,4-benzoxazin-6-yl)urea], the half-maximal inhibitory concentration (IC50) at human TRPV1 [1] was over 38000 nM. Besides, the “human TRPV1 H^+ (max % remain)” value on human TRPV1 [2] is on record as 101%.

Turning to `O=C1COc2ccc(NC(=O)N[C@@H]3CCc4cc(Cl)ccc43)cc2N1` [Example 119, 1-[(1R)-5-chloro-2,3-dihydro-1H-inden-1-yl]-3-(3-oxo-3,4-dihydro-2H-1,4-benzoxazin-6-yl)urea], the concentration for half-maximal inhibition (IC50) on human TRPV1 [1] worked out at 170 nM. The “human TRPV1 H^+ (max % remain)” value at human TRPV1 [2] is reported as 110%.

In the case of `O=C1COc2ccc(NC(=O)N[C@@H]3CCOc4c3cccc4C(F)(F)F)cc2N1` [Example 120, 1-(3-oxo-3,4-dihydro-2H-1,4-benzoxazin-6-yl)-3-[(4R)-8-(trifluoromethyl)-3,4-dihydro-2H-chromen-4-yl]urea], the IC50 at human TRPV1 [1] was 200 nM. Also, the “human TRPV1 H^+ (max % remain)” value on human TRPV1 [2] is given as 103%.

As for `O=C1COc2ccc(NC(=O)N[C@@H]3CCOc4cc(C(F)(F)F)ccc43)cc2N1` [Example 121, 1-(3-oxo-3,4-dihydro-2H-1,4-benzoxazin-6-yl)-3-[(4R)-7-(trifluoromethyl)-3,4-dihydro-2H-chromen-4-yl]urea], the concentration for half-maximal inhibition (IC50) at human TRPV1 [1] is over 38000 nM. In addition, the “human TRPV1 H^+ (max % remain)” value at human TRPV1 [2] is 107%.

For `O=C1COc2ccc(NC(=O)N[C@H]3CC4(CCC4)Oc4ccc(F)cc43)cc2N1` [Example 122, 1-[(4S)-6-fluoro-3,4-dihydrospiro[chromene-2,1′-cyclobutan]-4-yl]-3-(3-oxo-3,4-dihydro-2H-1,4-benzoxazin-6-yl)urea], the IC50 at human TRPV1 [1] was over 38000 nM. For the same molecule, the “human TRPV1 H^+ (max % remain)” value on human TRPV1 [2] was 104%.

For `CC1(C)C[C@H](NC(=O)Nc2ccc3c(c2)NC(=O)CO3)c2cc(F)ccc2O1` [Example 123, 1-[(4S)-6-fluoro-2,2-dimethyl-3,4-dihydro-2H-chromen-4-yl]-3-(3-oxo-3,4-dihydro-2H-1,4-benzoxazin-6-yl)urea], the IC50 on human TRPV1 [1] is over 38000 nM. The “human TRPV1 H^+ (max % remain)” value at human TRPV1 [2] was 94%.

Turning to `O=C1COc2ccc(NC(=O)N[C@@H]3CC4(CCCC4)Oc4ccccc43)cc2N1` [Example 124, 1-[(4R)-3,4-dihydrospiro[chromene-2,1′-cyclopentan]-4-yl]-3-(3-oxo-3,4-dihydro-2H-1,4-benzoxazin-6-yl)urea], at human TRPV1 [1], the concentration for half-maximal inhibition (IC50) was found to be 1600 nM. Moreover, on human TRPV1 [2], the “human TRPV1 H^+ (max % remain)” value turned out to be 97%.

Regarding `C[C@@]1(C(F)(F)F)C[C@@H](NC(=O)Nc2ccc3c(c2)NC(=O)CO3)c2ccccc2O1` [Example 125, 1-[(2S,4R)-2-methyl-2-(trifluoromethyl)-3,4-dihydro-2H-chromen-4-yl]-3-(3-oxo-3,4-dihydro-2H-1,4-benzoxazin-6-yl)urea], the IC50 on human TRPV1 [1] came to 330 nM. Moreover, the “human TRPV1 H^+ (max % remain)” value at human TRPV1 [2] was 96%.

With `C[C@]1(C(F)(F)F)C[C@@H](NC(=O)Nc2ccc3c(c2)NC(=O)CO3)c2ccccc2O1` [Example 126, 1-[(2R,4R)-2-methyl-2-(trifluoromethyl)-3,4-dihydro-2H-chromen-4-yl]-3-(3-oxo-3,4-dihydro-2H-1,4-benzoxazin-6-yl)urea], the IC50 on human TRPV1 [1] was determined as 58 nM. Also, on human TRPV1 [2], the “human TRPV1 H^+ (max % remain)” value is given as 87%.

Turning to `C[C@@]1(CF)C[C@@H](NC(=O)Nc2ccc3c(c2)NC(=O)CO3)c2ccc(C(F)(F)F)cc2O1` [Example 127, 1-[(2S,4R)-2-(fluoromethyl)-2-methyl-7-(trifluoromethyl)-3,4-dihydro-2H-chromen-4-yl]-3-(3-oxo-3,4-dihydro-2H-1,4-benzoxazin-6-yl)urea], the IC50 on human TRPV1 [1] is 67 nM. Besides, the “human TRPV1 H^+ (max % remain)” value at human TRPV1 [2] is 100%.

In the case of `C[C@]1(CF)C[C@@H](NC(=O)Nc2ccc3c(c2)NC(=O)CO3)c2ccc(C(F)(F)F)cc2O1` [Example 128, 1-[(2R,4R)-2-(fluoromethyl)-2-methyl-7-(trifluoromethyl)-3,4-dihydro-2H-chromen-4-yl]-3-(3-oxo-3,4-dihydro-2H-1,4-benzoxazin-6-yl)urea], the IC50 at human TRPV1 [1] was determined as 34 nM. Further, the “human TRPV1 H^+ (max % remain)” value at human TRPV1 [2] is 99%.

Regarding `C[C@@]1(CF)C[C@@H](NC(=O)Nc2ccc3c(c2)NC(=O)CO3)c2ccc(Cl)cc2O1` [Example 129, 1-[(2S,4R)-7-chloro-2-(fluoromethyl)-2-methyl-3,4-dihydro-2H-chromen-4-yl]-3-(3-oxo-3,4-dihydro-2H-1,4-benzoxazin-6-yl)urea], the IC50 at human TRPV1 [1] came to 120 nM. Further, the “human TRPV1 H^+ (max % remain)” value on human TRPV1 [2] is 97%.
